Reference: PubChem BioAssay (NCI)
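Grown in 96-well plates, cells were treated for 48 hours with each compound at five concentrations. Insufficient inhibition: endpoint recorded as highest concentration tested. TGI marks complete inhibition of growth.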

What was measured:
Experiment in all cases: NCI anticancer screen, dose series, 48 h
SK-OV-3 ovarian = tested on: SK-OV-3 ovarian
TK-10 renal = tested on: TK-10 renal
U251 CNS = tested on: U251 CNS
NCI/ADR-RES ovarian = tested on: NCI/ADR-RES ovarian
SF-295 CNS = tested on: SF-295 CNS
SF-539 CNS = tested on: SF-539 CNS
EKVX NSCLC = tested on: EKVX NSCLC
SW-620 colon = tested on: SW-620 colon
SF-268 CNS = tested on: SF-268 CNS
SK-MEL-28 melanoma = tested on: SK-MEL-28 melanoma

Compound | TGI (SK-OV-3 ovarian) [µM] | TGI (TK-10 renal) [µM] | TGI (U251 CNS) [µM] | TGI (NCI/ADR-RES ovarian) [µM] | TGI (SF-295 CNS) [µM] | TGI (SF-539 CNS) [µM] | TGI (EKVX NSCLC) [µM] | TGI (SW-620 colon) [µM] | TGI (SF-268 CNS) [µM] | TGI (SK-MEL-28 melanoma) [µM]
O=C1/C(=C/c2ccccc2)CCCc2ccccc21 | > 100 | 37.5 | 29.1 | 40.5 | 35.9 | 32.1 | 37.3 | 32.9 | 32.6 | 32.6
COc1ccc2oc(C(=O)N3CC(CCl)c4ccc(N)cc43)cc2c1 (stereo not given) | 8.78 | 7.12 | 15.2 | 0.758 | > 100 | 5.66 | 4 | 31.5 | 9.61 | 2.55
CCOc1cc(-c2nc3cc(F)ccc3s2)ccc1O | 33 | 34 | 41.3 | 50.2 | 35.2 | 34.2 | 24.4 | 40.7 | 31.2 | 43.1
COc1ccc(C2C3=C(COC3=O)OC(C)(C)Oc3cc4c(cc32)OCO4)cc1OC (stereo not given) | > 100 | > 100 | > 100 | 58.7 | 88.4 | 72.6 | > 89.8 | > 100 | > 31.6 | > 100
[N-]=[N+]=Nc1ccc2c(c1)Sc1ccccc1N2CCCCN1CCN(C(=O)CCNC(=O)Cc2ccc(C(=O)c3ccccc3)cc2)CC1 | > 100 | > 75.6 | > 24.6 | > 39.1 | 10.1 | 17.2 | > 100 | > 39.3 | 16 | 9.89
COc1ccc2c3c1OC1C(OC)(OC)CC4(C=C2)CN(C)CCC314 (stereo not given) | > 100 | > 100 | > 100 | > 100 | > 100 | > 100 | > 100 | > 100 | > 100 | > 100
COC(=O)CNC(=O)CCC(C)[C@H]1CCC2C3C(C[C@H](OC(C)=O)[C@@]21C)[C@@]1(C)CCC2(C[C@H]1C[C@H]3OC(C)=O)OOC1(CCCCC1)OO2 (stereo not given in full) | 25 | 24.2 | 3.41 | 4.7 | 18.4 | 3.75 | 3.74 | 5.46 | 3.59 | 22.1
O=[N+]([O-])C(C(Cl)=C(Cl)Cl)=C(n1cncn1)n1cncn1 | > 100 | > 100 | > 87.1 | 67 | > 100 | 41.2 | 59.9 | 43.1 | 35.3 | > 95.9
CN(C)N=Nc1ccc2[nH]c(=O)[nH]c2c1 | > 100 | > 100 | > 100 | > 100 | > 100 | > 100 | > 100 | > 100 | > 100 | > 100
C1=NCCOCCN=Cc2ccc(cc2)OCc2cccc(n2)COc2ccc1cc2 | > 100 | > 100 | > 100 | > 100 | > 100 | > 100 | > 100 | > 100 | > 100 | > 100
COc1cccc2cc(C(=O)NC34CC5CC(CC(C5)C3)C4)c(=N)oc12 | > 100 | > 100 | > 100 | > 100 | > 100 | > 56.1 | > 100 | > 100 | > 100 | > 100
N#Cc1c(-c2ccc([N+](=O)[O-])cc2)cc(-c2ccc(Nc3ccnc4cc(Cl)ccc34)cc2)nc1N | 52.5 | 43 | 2.82 | 26.8 | 37.6 | 55.4 | 38 | > 100 | 42.2 | > 100
CC(C)=C[C@@H]1O[C@H](O)[C@@H]([C@H]2CC[C@@]3(C)[C@@H]4CC[C@H]5C(C)(C)C(=O)CC[C@@]56C[C@@]46CC[C@]23C)[C@@H]1O | 34.6 | 30.1 | 34.8 | 35.6 | 31.9 | 28 | 33 | 29.7 | 39.4 | 42.5
O=C1NC(=Nc2ccccc2)C(=Nc2ccccc2)N1c1ccccc1 | 34.4 | 30.8 | 28.9 | 30.6 | 29.4 | 31.5 | 31.5 | 30 | 34 | 28.4
Nc1c2cc3ccc2nc2ccc(cc12)OCCOCCOCCOCCOCCOCCO3 | > 10 | > 10 | > 10 | > 10 | > 10 | > 10 | > 10 | > 10 | > 10 | > 10
Cc1cn(C2OC(CO)C(O)C2F)c(=O)[nH]c1=O (stereo not given) | > 100 | > 100 | > 100 | > 100 | > 100 | > 100 | > 100 | > 100 | > 100 | > 100
CCN(CC)CCN1C(=O)C(=O)N(c2cccc3ccccc23)C1=O | > 10 | > 10 | > 10 | > 10 | > 10 | > 10 | > 10 | > 10 | > 10 | > 10
